Source: patent US8822430B2 (Gilead Sciences, Inc., priority 2009, dated 2014)

Tested on: HCV 1b RLuc cells (dicistronic genotype 1b Con1 replicon)
Test: Renilla luciferase (RLuc)-based HCV replicon reporter assay
Format: cell-based, HCV genotype 1b
Details: Hepatitis C virus, 72 h, HCV 1b RLuc replicon, 72 hours; read-out: Activity (antiviral potency [EC50])
Method: Antiviral potency (EC50) was determined using a Renilla luciferase (RLuc)-based HCV replicon reporter assay. To perform the assay, HCV 1b RLuc cells (harboring a dicistronic genotype 1b Con1 replicon that encodes a RLuc reporter), or HCV 1a RLuc cells (harboring a dicistronic genotype 1a H77 replicon that encodes a RLuc reporter), were dispensed into 384-well plates. Compounds were re-suspended in DMSO at a concentration of 10 mM and serially diluted in DMSO using an automated pipeting instrument. Serially diluted compounds were mixed with cell culture media and added to the seeded cells. DMSO was used as a negative (solvent) control, and the protease inhibitor ITMN-191 was included at a concentration >100×EC50 as a positive control. 72 hours later, cells were lysed and Renilla luciferase activity quantified as recommended by the manufacturer (Promega-Madison, Wis.). Non-linear regression was performed to calculate EC50 values.
Biological data (antiviral potency [EC50] was determined using a Renilla luciferase (RLuc)-based HCV replicon reporter assay—HCV 1b RLuc) for representative compounds of the invention is provided in the following table. These compounds can be prepared using procedures similar to those described above.

Row | Compound | EC50 [nM]
1 | COC(=O)N[C@H](C(=O)N1CCC[C@H]1c1ncc(-c2ccc(-c3cccc4c(-c5ccc(-c6cnc([C@@H]7CCCN7C(=O)[C@@H](NC(=O)OC)C(C)C)[nH]6)cc5)cccc34)cc2)[nH]1)C(C)C | 26.7
2 | COC(=O)N[C@@H](CCOC(F)F)C(=O)N1[C@@H]2CC[C@@H](C2)[C@H]1c1ncc(-c2ccc(-c3ccc4cc(-c5cnc([C@@H]6CC7(CC7)CN6C(=O)[C@@H](NC(=O)OC)C(C)C)[nH]5)ccc4c3)cc2)[nH]1 | 0.008
3 | COC(=O)N[C@H](C(=O)N1[C@@H]2CC[C@@H](C2)[C@H]1c1ncc(-c2ccc(-c3ccc4cc(-c5cnc([C@@H]6CC7(CC7)CN6C(=O)[C@@H](NC(=O)OC)C6CCOCC6)[nH]5)ccc4c3)cc2)[nH]1)C(C)C | 0.0136
4 | COC(=O)N[C@H](C(=O)N1CCC[C@H]1C(=O)Nc1ccc(CCc2ccc(NC(=O)[C@@H]3CCCN3C(=O)[C@@H](NC(=O)OC)C(C)C)cc2)cc1)C(C)C | 0.264
5 | COC(=O)N[C@H](C(=O)N1CCC[C@H]1c1ncc(-c2ccc(-c3ccc4cc(-c5ccc6nc([C@@H]7[C@H]8CC[C@H](C8)N7C(=O)[C@@H](NC(=O)OC)C(C)C)[nH]c6c5)ccc4c3)cc2)[nH]1)C(C)C | 0.0898
6 | COC(=O)N[C@H](C(=O)N1CCC[C@H]1c1ncc(C23CCC(c4cccc(-c5cnc([C@@H]6CCCN6C(=O)[C@H](NC(=O)OC)C(C)C)[nH]5)c4)(CC2)CC3)[nH]1)C(C)C | ≥ 44.4
7 | COC(=O)N[C@H](C(=O)N1CCC[C@H]1c1ncc(-c2ccc(/C=C/c3ccc(-c4cnc([C@@H]5CCCN5C(=O)[C@@H](NC(=O)OC)C(C)C)[nH]4)cc3)cc2)[nH]1)C(C)C | 0.0264
8 | COC(=O)N[C@H](C(=O)N1CCC[C@H]1c1ncc(-c2ccc(C#Cc3ccc(-c4cnc([C@@H]5CN(C(=O)OC)CCN5C(=O)[C@@H](NC(=O)OC)C(C)C)[nH]4)cc3)cc2)[nH]1)C(C)C | 0.256
9 | COC(=O)N[C@H](C(=O)N1CCC[C@H]1C(=O)Nc1cccc(-c2ccc(-c3cnc([C@@H]4CCCN4C(=O)[C@@H](NC(=O)OC)C(C)C)[nH]3)cc2)c1)C(C)C | 0.118
10 | COC(=O)N[C@H](C(=O)N1CCC[C@H]1c1ncc(-c2ccc3c(c2)Sc2cc(-c4cnc([C@@H]5CCCN5C(=O)[C@@H](NC(=O)OC)C(C)C)[nH]4)ccc2S3)[nH]1)C(C)C | 0.349
11 | COC(=O)N[C@@H](CCC#N)C(=O)N1CC2(CC2)C[C@H]1c1ncc(-c2ccc3cc(-c4ccc(-c5cnc([C@@H]6[C@H]7CC[C@H](C7)N6C(=O)[C@@H](NC(=O)OC)C(C)C)[nH]5)cc4)ccc3c2)[nH]1 | 0.0159
12 | COC(=O)N[C@H](C(=O)N1CC2(CC2)C[C@H]1c1ncc(-c2ccc3cc(-c4ccc(-c5cnc([C@@H]6[C@H]7CC[C@H](C7)N6C(=O)[C@@H](NC(=O)OC)C6CCOCC6)[nH]5)cc4)ccc3c2)[nH]1)C(C)C | 0.0115
13 | COC(=O)N[C@H](C(=O)N1CCC[C@H]1C(=O)Nc1cccc(-c2ccc(-c3ccc(-c4cnc([C@@H]5CCCN5C(=O)[C@@H](NC(=O)OC)C(C)C)[nH]4)cc3)cc2)c1)C(C)C | 0.0111
14 | COC(=O)N[C@H](C(=O)N1CCC[C@H]1c1ncc(-c2ccc(Oc3ccc(-c4cnc([C@@H]5CCCN5C(=O)[C@@H](NC(=O)OC)C(C)C)[nH]4)cc3)cc2)[nH]1)C(C)C | > 21.3
15 | COC(=O)N[C@H](C(=O)N1CCC[C@H]1c1nc2ccc(-c3ccc4nc([C@@H]5CCCN5C(=O)[C@@H](NC(=O)OC)C(C)C)[nH]c4c3)cc2[nH]1)C(C)C | 35.5
16 | CC[C@H](C)[C@H](NC(=O)OC)C(=O)N1C[C@@H](C#N)C[C@H]1c1ncc(-c2ccc3cc(-c4ccc(-c5cnc([C@@H]6CC7(CC7)CN6C(=O)[C@@H](NC(=O)OC)C(C)C)[nH]5)cc4)ccc3c2)[nH]1 | 0.01
17 | COC(=O)N[C@H](C(=O)N1CC2(CC2)C[C@H]1c1ncc(-c2ccc3c(c2)C(F)(F)c2cc(-c4ccc5nc([C@@H]6[C@H]7CC[C@H](C7)N6C(=O)[C@@H](NC(=O)OC)C(C)C)[nH]c5c4)ccc2-3)[nH]1)C(C)C | 0.0045
18 | COC(=O)N[C@@H](C)C(=O)N1CCC[C@H]1c1ncc(-c2ccc3c(c2)sc2cc(-c4ccc5nc([C@@H]6[C@H]7CC[C@H](C7)N6C(=O)[C@H](C)NC(=O)OC)[nH]c5c4)ccc23)[nH]1 | 0.075
19 | COC(=O)N[C@H](C(=O)N1CCC[C@H]1c1ncc(-c2ccc(C#Cc3ccc(-c4cnc([C@@H]5CCCN5C(=O)[C@@H](NC(=O)OC)C(C)C)[nH]4)cc3)cc2)[nH]1)C(C)C | 0.0126
20 | COC(=O)N[C@H]1CC[C@H]2CC[C@@H](c3ncc(-c4ccc(-c5ccc(-c6cnc([C@@H]7CCCN7C(=O)[C@@H](NC(=O)OC)C(C)C)[nH]6)cc5)cc4)[nH]3)N2C1=O | 0.156

Row | Compound | EC50 [nM]
21 | COC(=O)N[C@H](C(=O)N1CCC[C@H]1c1ncc(-c2ccc(C#Cc3ccc(-c4cnc([C@H]5N(C(=O)[C@@H](NC(=O)OC)C(C)C)CSC5(C)C)[nH]4)cc3)cc2)[nH]1)C(C)C | 0.0424
22 | COC(=O)N[C@H](C(=O)N1CCC[C@H]1c1ncc(-c2ccc3cc(-c4ccc(-c5cnc([C@@H]6CCCN6C(=O)[C@@H](NC(=O)OC)C6CCOCC6)[nH]5)cc4)ccc3c2)[nH]1)C(C)C | 0.0131
23 | COC(=O)NC(C(=O)N1CCC[C@H]1c1ncc(-c2ccc(-c3ccc4cc(-c5cnc([C@@H]6CCCN6C(=O)C(NC(=O)OC)c6ccccc6)[nH]5)ccc4c3)cc2)[nH]1)c1ccccc1 (stereo partly shown) | 0.0228
24 | COC(=O)N[C@H](C(=O)N1CCC[C@H]1c1ncc(-c2ccc(C#Cc3ccc(-c4cnc([C@@H]5CN(C(C)=O)CCN5C(=O)[C@@H](NC(=O)OC)C(C)C)[nH]4)cc3)cc2)[nH]1)C(C)C | 0.204
25 | COC(=O)N[C@H](C(=O)N1CCC[C@H]1c1nc(-c2cccc(Oc3ccc(-c4cnc([C@@H]5CCCN5C(=O)[C@@H](NC(=O)OC)C(C)C)[nH]4)cc3)c2)c[nH]1)C(C)C | 0.0539
26 | COCC[C@H](NC(=O)OC)C(=O)N1[C@@H]2CC[C@@H](C2)[C@H]1c1ncc(-c2ccc(-c3ccc4cc(-c5cnc([C@@H]6CC7(CC7)CN6C(=O)[C@@H](NC(=O)OC)C(C)C)[nH]5)ccc4c3)cc2)[nH]1 | 0.0119
27 | COC(=O)N[C@H](C(=O)N1[C@@H]2CC[C@@H](C2)[C@H]1c1nc2ccc(-c3ccc4c(c3)C(=O)c3cc(-c5cnc([C@@H]6CC7(CC7)CN6C(=O)[C@H](NC(=O)OC)C(C)C)[nH]5)ccc3-4)cc2[nH]1)C(C)C | 0.005
28 | COC(=O)N[C@H](C(=O)N1CCC[C@H]1c1ncc(-c2ccc3c(c2)oc2cc(-c4cnc([C@@H]5[C@H]6CC[C@H](C6)N5C(=O)[C@@H](NC(=O)OC)C(C)C)[nH]4)ccc23)[nH]1)C(C)C | 0.0082
29 | COC(=O)N[C@@H](C)C(=O)N1[C@@H]2CC[C@@H](C2)[C@H]1c1ncc(-c2ccc3cc(-c4ccc(-c5cnc([C@@H]6CCCN6C(=O)[C@@H](NC(=O)OC)C(C)C)[nH]5)cc4)ccc3c2)[nH]1 | 0.016
30 | COC(=O)N[C@H](C(=O)N1CCC[C@H]1c1ncc(-c2ccc(-c3ccc(-c4cnc([C@@H]5CN(C(=O)OC(C)(C)C)CN5C(=O)[C@@H](NC(=O)OC)C(C)C)[nH]4)cc3)cc2)[nH]1)C(C)C | 0.005
31 | COC(=O)N[C@H](C(=O)N1[C@@H]2CC[C@@H](C2)[C@H]1c1nc2ccc(-c3ccc(-c4ccc(-c5ccc6nc([C@@H]7[C@H]8CC[C@H](C8)N7C(=O)[C@@H](NC(=O)OC)C(C)C)[nH]c6c5)cc4)cc3)cc2[nH]1)C(C)C | 0.283
32 | COC(=O)N[C@H](C(=O)N1CCC[C@H]1c1ncc(-c2ccc(C#Cc3ccc(-c4cnc([C@@H]5CNCCN5C(=O)[C@@H](NC(=O)OC)C(C)C)[nH]4)cc3)cc2)[nH]1)C(C)C | 0.201
33 | COC(=O)N[C@H](C(=O)N1CCC[C@H]1c1ncc(-c2ccc(-c3cnc([C@@H]4CCCN4C(=O)[C@@H](NC(=O)OC)C(C)C)[nH]3)cc2)[nH]1)C(C)C | 1.22
34 | COC(=O)N[C@H](C(=O)N1CCC[C@H]1c1ncc(-c2ccc(C#Cc3ccc(-c4cnc([C@@H]5CN(C(=O)OC(C)(C)C)CN5C(=O)[C@@H](NC(=O)OC)C(C)C)[nH]4)cc3)cc2)[nH]1)C(C)C | 0.318
35 | COC(=O)N[C@H](C(=O)N1CCC[C@H]1C(=O)Nc1nccc2cc(-c3ccc(-c4cnc([C@@H]5CCCN5C(=O)[C@@H](NC(=O)OC)C(C)C)[nH]4)cc3)ccc12)C(C)C | 0.729
36 | COC(=O)N[C@H](C(=O)N1CCC[C@H]1c1ncc(-c2ccc(-c3ccc(-c4cnc([C@@H]5CCCN5C(=O)[C@@H](NC(=O)OC)C(C)(C)S(C)(=O)=O)[nH]4)cc3)cc2)[nH]1)C(C)C | 0.161
37 | COC(=O)N[C@H](C(=O)N1CC2(CC2)C[C@H]1c1ncc(-c2ccc(-c3ccc4cc(-c5cnc([C@@H]6[C@H]7CC[C@H](C7)N6C(=O)[C@@H](NC(=O)OC)C(C)(C)OC)[nH]5)ccc4c3)cc2)[nH]1)C(C)C | 0.0155
38 | COC(=O)N[C@H](C(=O)N1[C@@H]2CC[C@@H](C2)[C@H]1c1ncc(-c2ccc3cc(-c4ccc(-c5cnc([C@@H]6CC7(CC7)CN6C(=O)[C@@H](NC(=O)OC)C6CC6)[nH]5)cc4)ccc3c2)[nH]1)C(C)C | 0.286
39 | COC(=O)N[C@H](C(=O)N1[C@@H]2CC[C@@H](C2)[C@H]1c1ncc(-c2ccc(-c3ccc4cc(-c5cnc([C@@H]6CC7(CC7)CN6C(=O)[C@@H](NC(=O)OC)C(C)OC)[nH]5)ccc4c3)cc2)[nH]1)C(C)C (stereo partly shown) | 0.0077
40 | COC(=O)N[C@H](C(=O)N1CCC[C@H]1c1ncc(-c2ccc3cc(-c4ccc(-c5cnc([C@@H]6CCCN6C(=O)[C@H](NC(=O)OC)C6CCOCC6)[nH]5)cc4)ccc3c2)[nH]1)C(C)C | 0.171
